In experiment [1] the target is Lucilia cuprina αE7 carboxylesterase (LcαE7) variant Gly137Asp (Lucilia cuprina, UniProt Q25252, G137D). The experiment in a line: Inhibition of Gly137Asp LcαE7, 4-nitrophenol butyrate hydrolysis. The class given is biochemical. An excerpt: The term “carboxyethylesterase” (CBE), refers to insect carboxylesterases from the alpha and beta and non-microsomal gene clusters, as defined in Oakeshott, Claudianos, Campbell, Newcomb and Russell, “Biochemical Genetic and Genomics of Insect Esterases”, pp 309-381, Chapter 10, Volume 5, 2005, Eds. Gilbert, Iatrou, Gill, published—Elsevier which is incorporated herein by reference. The αE7 CBE is an example of an alpha esterase, and is found in the sheep blowfly, Lucilia cuprina, with homologous genes being present in other insect pests. […]
Sequence of Lucilia cuprina αE7 carboxylesterase (LcαE7) variant Gly137Asp (Q25252 entry or part of it G137D): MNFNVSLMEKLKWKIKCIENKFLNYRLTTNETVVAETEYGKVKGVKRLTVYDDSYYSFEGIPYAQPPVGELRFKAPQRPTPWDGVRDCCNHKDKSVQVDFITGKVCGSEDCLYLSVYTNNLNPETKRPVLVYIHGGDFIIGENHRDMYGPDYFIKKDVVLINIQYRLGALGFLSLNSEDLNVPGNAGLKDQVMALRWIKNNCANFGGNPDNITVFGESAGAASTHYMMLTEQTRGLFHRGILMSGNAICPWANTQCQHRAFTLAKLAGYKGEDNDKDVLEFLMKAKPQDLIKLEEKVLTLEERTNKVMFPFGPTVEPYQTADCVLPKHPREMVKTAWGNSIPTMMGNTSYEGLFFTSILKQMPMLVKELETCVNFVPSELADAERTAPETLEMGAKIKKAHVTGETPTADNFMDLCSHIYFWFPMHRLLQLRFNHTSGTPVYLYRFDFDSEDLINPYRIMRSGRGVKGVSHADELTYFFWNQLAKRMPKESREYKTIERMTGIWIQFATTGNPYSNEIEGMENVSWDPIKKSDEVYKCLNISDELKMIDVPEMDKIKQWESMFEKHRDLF
His6-tagged proteins were expressed in BL21(DE3) E. coli (Invitrogen) at 26° C. for 18 hours. […] Protein concentration was determined by measuring the absorbance at 280 nm with an extinction coefficient calculated using the Protparam online server (Gasteiger, E. et al. Protein identification and analysis tools on the ExPASy server. Proteomics Protoc. Handb. 571-607 (2005). doi:10.1385/1-59259-890-0:571).
Inhibition of wild-type αE7 and the Gly137Asp αE7 variant was determined by a competition assay between the native-substrate analogue 4-nitrophenol butyrate (Sigma) and the boronic acid compounds. Initially, the Michalis constant (KM) with 4-nitrophenol butyrate was measured for both enzymes to determine an appropriate concentration of substrate for use in the competition assays. […]

Experiment [2] relates to panel of 26 human serine or threonine proteases. The experiment in a line: Protease selectivity panel, summary over the panel. The class given is biochemical. As to conditions: 100 μM compound. The method, then:
(§1) Test compounds were dissolved in 100% DMSO to make 10 mM stock. Final compound concentration in assay is […]. Compounds were tested in duplicate wells at single concentration and the final concentration of DMSO in all assays was kept at 1%. Five reference compounds, AEBSF, Carfilzomib, Granzyme B Inhibitor II, Dec-RVKR-CMK, and Teneligliptin hydrobromide, were tested in an identical manner with 8 concentration points at 5× dilutions.

For experiment [3] the test system is unchanged. The experiment in a line: Protease selectivity panel as a whole (26 Ser/Thr proteases). The class given is biochemical. The conditions noted are these: 100 μM; the 3 proteases inhibited by more than 50%. The method, then:
as §1

Experiment [4] concerns Myzus persicae (Green peach aphid). In words: Efficacy of chlorpyrifos-ethyl with boronic acids on aphids on broad bean leaves. The class given is in vivo. The conditions noted are these: for Percentage of efficacy: boronic acid where present 0.2 mg/ml. The method, then: Experimentations was carried out in BIOtransfer, France under controlled conditions.
Bean leaves were treated with chlorpyrifos 480 EC (480 g a.i./1) at 4 application rates (360, 180, 90, 45 g a.i./ha), used alone or in combination with 3 boronic acid (BA) derivates (3.10, 5 and 3.7) each at 0.2 mg/ml. The treatment was performed with an agricultural nozzle (300 L per hectare) […]. A non-treated control condition were also evaluated in parallel. Statistical analysis of the data was then performed. When the leaves were totally dry, 3 leaves were sampled and infested with 3 wingless adults of M. persicae per leaf fragment.
• T+1 (DAT 1)—One day later the number of adults remaining on the leaves was counted. • T+3 (DAT 3)—3 days after treatment the aphid population was estimated; • T+7 (DAT 7)—7 days after treatment the development of aphid population was estimated.
3 bean leaves fragments per microbox*4 microbox per condition (1 condition is 1 formulation at 1 dose)*9 adult aphids per microbox*4 insecticides (3 chlorpyrifos derivates+clorpyrifos alone)*4 rates+2 controls (1 reference insecticide formulation at one dose and non-treated)*3 assessments timings (DAT+1, DAT+3 and DAT+7).

Regarding `OB(O)c1cc(Br)cc(N2CCCC2)c1` [Compound 3], the “inhibition of Gly137Asp LcαE7” value in experiment [1] is recorded as “poor inhibitor of Gly137Asp LcαE7”. Also, in experiment [2], the “inhibition across the panel of 26 human proteases (in words)” value was “only 3 of the 26 proteases were inhibited by more than 50%”. In addition, the “residual activity of the inhibited proteases” value in experiment [3] is on record as “at least 30%”.
In the case of `CCOP(=S)(OCC)Oc1nc(Cl)c(Cl)cc1Cl` [CPE, Chlorpyrifos-ethyl], the Percentage of efficacy in experiment [4] (CPE 0.7, 1 DAT) was 38%; in experiment [4] (CPE 0.7, 3 DAT) it was 20%; in experiment [4] (CPE 0.7, 7 DAT) it was 25%; in experiment [4] (CPE 1.4, 1 DAT), 41%; in experiment [4] (CPE 1.4, 3 DAT) it was 27%; in experiment [4] (CPE 1.4, 7 DAT) it was 25%. Moreover, the Percentage of efficacy in experiment [4] (CPE 2.8, 1 DAT) came out at 32%; in experiment [4] (CPE 2.8, 3 DAT), 26%; in experiment [4] (CPE 2.8, 7 DAT), 23%; in experiment [4] (CPE 5.6, 1 DAT), 36%; in experiment [4] (CPE 5.6, 3 DAT) it was 48%; in experiment [4] (CPE 5.6, 7 DAT) it was 67%. For the same compound, the “Calibration results (efficacy)” value amounted to 33% in experiment [4] (CPE 1.4, 1 DAT); 51% in experiment [4] (CPE 1.4, 3 DAT); 51% in experiment [4] (CPE 1.4, 7 DAT); 31% in experiment [4] (CPE 2.8, 1 DAT); 79% in experiment [4] (CPE 2.8, 3 DAT); 99% in experiment [4] (CPE 2.8, 7 DAT). For the same compound, the “Calibration results (efficacy)” value was 67% in experiment [4] (CPE 5.6, 1 DAT); 98% in experiment [4] (CPE 5.6, 3 DAT); 100% in experiment [4] (CPE 5.6, 7 DAT).
